Where two headings read alike, the source gives them in different places.
What was measured:
[1] = target: human D2-long dopamine receptor (Homo sapiens (Human), UniProt P14416); assay: Radioligand binding (125I-IABN competition), D2; details: HEK cell membranes expressing human D2-long
Experimental: (§1) The affinities of the target compounds were determined using radioligand binding experiments. […] Competition curves were modeled for a single site. Data from competition dose-response curves were analyzed using Tablecurve program (Jandel). IC50 values were converted to equilibrium dissociation constants (Ki values) using the Cheng and Prusoff correction.

[2] = target: human D2 dopamine receptors (Homo sapiens (Human), UniProt P14416); assay: Whole Cell Adenylyl Cyclase Assay, D2; type: cell-based; details: inhibition of forskolin (100 μM) stimulated cAMP, normalized to quinpirole; compound conc ≥10× Ki (per compound); mean ± S.E.M.
Sequence of human D2 dopamine receptors (P14416 whole entry): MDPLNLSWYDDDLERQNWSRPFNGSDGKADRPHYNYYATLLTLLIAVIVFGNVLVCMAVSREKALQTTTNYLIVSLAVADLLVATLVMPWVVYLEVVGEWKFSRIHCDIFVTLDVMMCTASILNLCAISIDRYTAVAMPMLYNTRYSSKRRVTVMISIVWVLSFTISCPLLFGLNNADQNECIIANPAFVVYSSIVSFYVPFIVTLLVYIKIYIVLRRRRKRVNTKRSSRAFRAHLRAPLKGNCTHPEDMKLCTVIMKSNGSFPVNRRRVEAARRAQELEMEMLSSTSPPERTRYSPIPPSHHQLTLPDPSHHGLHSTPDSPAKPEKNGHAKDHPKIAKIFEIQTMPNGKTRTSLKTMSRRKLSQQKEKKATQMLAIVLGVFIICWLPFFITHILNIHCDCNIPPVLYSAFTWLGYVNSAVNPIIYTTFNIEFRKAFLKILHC
Experimental: (§2) The intrinsic activity of the compounds was evaluated by determining their ability to inhibit forskolin-dependent (100 μM) stimulation of adenylyl cyclase activity using a whole cell assay. A whole cell-cyclic AMP accumulation assay was performed with stably transfected HEK cells expressing human D2 or D3 dopamine receptors. This assay is an adaptation of an earlier published method (Su et al., Cyclic Nucleotide Res. 1976, 2, 257-285). Details regarding this method have been published (Chu, W. et al. Bioorg. Med. Chem. 2005, 13, 77-87; Taylor, M. et al. Synapse 2010, 64, 251-266). Confluent (60-80%) HEK cells transfected with recombinant D2-like dopamine receptors were grown in DMEM/10% fetal calf serum containing geneticin in […] flasks. The endogenous ATP pool is radioactively labeled by preincubating the cells in serum-free DMEM/25 mM Hepes medium containing 2 μCi/mL of [2,8-^3H]-adenine (20-Ci/mmol) in a 5% CO2 incubator at 37° C. for 75 min. The radioactive medium was removed by aspiration. Serum-free DMEM (5.6 mL) containing 25 mM HEPES, pH 7.4, and 0.1 mM of the phosphodiesterase inhibitor isobutylmethylxanthine was added to the flask. A […] aliquot of cells was removed and added to 50 μL of forskolin (100 μM) and 50 μL of test drug or quinpirole in DMEM-HEPES. The cells were incubated for 20 min at 37° C. (vortexing every 5 min). The reaction was terminated by the addition of 0.5 mL of 10% trichloroacetic acid (w/v) containing 1.0 mM unlabeled cyclic AMP as a recovery standard. Both the [^3H]-cyclic AMP and the [^3H]-ATP fractions were collected following separation using columns of Dowex AG-50W-X4 and alumina. The final yield of [^3H]-cyclic AMP is corrected for column recovery of unlabeled cyclic AMP determined spectrophotometrically (OD259). The results are reported as percent conversion of [^3H]-ATP into [^3H]-cyclic AMP. The values for the percent inhibition are reported as the actual percent of inhibition of the ^3H-cAMP accumulation relative to the assay performed in the absence of a test compound, minus basal activity. […] The percent maximum response is the value for the inhibition normalized to the value for the full agonist quinpirole.

[3] = target: T1, human D3 dopamine receptor (Homo sapiens (Human), UniProt P35462); assay: Radioligand binding (125I-IABN competition), D3; details: for Ki: 125I-IABN competition, HEK cell membranes expressing human D3; for D2/D3 (D3 selectivity ratio, D2 Ki/D3 Ki): calculated D2 Ki/D3 Ki
T1 sequence (P35462 whole entry): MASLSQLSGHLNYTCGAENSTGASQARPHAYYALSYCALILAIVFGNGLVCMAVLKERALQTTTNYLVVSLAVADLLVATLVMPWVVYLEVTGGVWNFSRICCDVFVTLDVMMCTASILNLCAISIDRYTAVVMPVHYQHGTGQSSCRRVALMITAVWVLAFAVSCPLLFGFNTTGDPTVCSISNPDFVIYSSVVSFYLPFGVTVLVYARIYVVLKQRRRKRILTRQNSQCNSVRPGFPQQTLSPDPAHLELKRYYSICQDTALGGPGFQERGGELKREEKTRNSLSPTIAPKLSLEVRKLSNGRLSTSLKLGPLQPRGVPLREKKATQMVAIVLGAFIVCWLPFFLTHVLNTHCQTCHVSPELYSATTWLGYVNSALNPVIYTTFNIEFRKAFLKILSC
Experimental: as §1

[4] = target: T1, human D3 dopamine receptor; assay: Whole Cell Adenylyl Cyclase Assay, D3; type: cell-based; details: inhibition of forskolin (100 μM) stimulated cAMP, normalized to quinpirole; compound conc ≥10× Ki (per compound); mean ± S.E.M.
Experimental: as §2

D3R = D3R (Homo sapiens (Human), UniProt P35462); assay: D3 Mitogenesis Functional Assay (3H-thymidine uptake, CHOp-D3 cells); type: cell-based; details: for Emax at 10 µM: % maximum stimulation vs quinpirole (100%), read-out: D3 Agonist Emax; for D3 Antagonist Imax: inhibition of quinpirole stimulation of mitogenesis; for IC50: read-out: D3 Antagonist IC50
Sequence of D3R (P35462 whole entry): as above
Experimental: (§3) These assays are based on ^3H-thymidine uptake by cells that are proliferating.
CHO cells expressing human D3 receptors (CHOp-D3 cells) were maintained in alpha-MEM with 10% fetal bovine serum (FBS, Atlas Biologicals), 0.05% pen-strep, and 200 μg/ml of G418. […] The cells are incubated at 37° C. in alpha-MEM with 10% FBS. After 48-72 hours, the cells are rinsed twice with serum-free alpha-MEM and incubated for 24 hours at 37° C. Serial dilutions of test compounds were made by the Biomek robotics system in serum-free alpha-MEM. In the functional assay for agonism, the medium is removed and replaced with 100 μL of test compound in serum-free alpha-MEM. In the antagonist assay, the serial dilution of the putative antagonist test compound was added in 90 μL (1.1× of final concentration) and 300 nM quinpirole (30 nM final) was added in 10 uL. After another 16-hour incubation at 37° C., 0.25 μCi of [^3H]thymidine in alpha-MEM supplemented with 10% FBS was added to each well and the plates were further incubated for 2 hours at 37° C. The cells were trypsinized by addition of 10× trypsin solution (1% trypsin in calcium-magnesium-free phosphate-buffered saline) and the plates were filtered and counted as usual. Quinpirole was run as an internal control and dopamine was included for comparative purposes. Butaclamol was run as the standard antagonist. Data were analyzed using GraphPAD Prism and agonist potency was expressed as EC50 values or % stimulation and antagonist potency was expressed as IC50 values. In these assays, based on the % maximum stimulation as compared to the standard agonist quinpirole (100%) the compounds were classified into following categories: ≧90% full agonist; 70-90% partial to full agonist; <70% partial agonist; 0-20% potential antagonist.

human D2 receptors = human D2 receptors (Homo sapiens (Human), UniProt P14416); assay: D2 Mitogenesis Functional Assay (3H-thymidine uptake, CHOp-D2 cells); type: cell-based; details: for Emax at 10 µM: % maximum stimulation vs quinpirole (100%), read-out: D2 Agonist Emax; for Emax at 10 µM / D2 Antagonist Imax: at 10 μM; for D2 Antagonist Imax: inhibition of quinpirole stimulation of mitogenesis; for IC50: read-out: D2 Antagonist IC50
Sequence of human D2 receptors (P14416 whole entry): as the sequence (P14416 whole entry) above
Experimental: as §3
CHO cells expressing human D2 receptors (CHOp-D2 cells) were maintained in alpha-MEM with 10% FCS, 0.05% pen-strep, and 200 μg/mL of G418. […] The cells were incubated at 37° C. in alpha-MEM with 10% FCS. After 48-72 hours, the cells were rinsed twice with serum-free alpha-MEM and incubated for 24 hours at 37° C. Serial dilutions of test compounds were made by the Biomek robotics system in serum-free alpha-MEM. In the functional assay for agonism, the medium was removed and replaced with 100 μL of test compound in serum-free alpha-MEM. In the antagonist assay, the serial dilution of the putative antagonist test compound was added in 90 μL (1.1× of final concentration) and 300 nM quinpirole (30 nM final) was added in […]. After another 24-hour incubation at 37° C., 0.25 μCi of [^3H]thymidine in alpha-MEM supplemented with 10% FCS was added to each well and the plates were further incubated for 2 hours at 37° C. The cells were trypsinized by addition of 10× trypsin solution (1% trypsin in calcium-magnesium-free phosphate-buffered saline) and the plates were filtered and counted as usual. Quinpirole was run as an internal control and dopamine was included for comparative purposes. Butaclamol was run as the standard antagonist.

[5] = inhibition of quinpirole (30 nM final) stimulation of mitogenesis

Sequence of human D2-long dopamine receptor (P14416 whole entry): as above

Row | Compound | Ki [1] [nM] | D2 Cyclase % Inhibition Normalized [2] [%] | Ki [3] [nM] | D2/D3 (D3 selectivity ratio, D2 Ki/D3 Ki) [3] | D3 Cyclase % Inhibition Normalized [4] [%] | EC50 (D3R; CHOp-D3 cells, stimulation of mitogenesis, read-out: D3 Agonist EC50) [nM] | Emax at 10 µM (D3R) [%] | D3 Antagonist Imax (D3R) [%] | IC50 (D3R) [nM] | EC50 (human D2 receptors; CHOp-D2 cells, stimulation of mitogenesis, read-out: D2 Agonist EC50) [nM] | Emax at 10 µM (human D2 receptors) [%] | D2 Antagonist Imax (human D2 receptors) [% at 10 μM] | IC50 (human D2 receptors) [nM] | IC50 (D3R; [5]) [nM] | IC50 (human D2 receptors; [5]) [nM]
1 | CC(C)(C)c1nc(N2CCN(CCCCNC(=O)N3CCN(c4cccc(C#N)c4)CC3)CC2)cc(C(F)(F)F)n1 [Compound 26, N-(4-(4-(2-(tert-Butyl)-6-(trifluoromethyl)pyrimidin-4-yl)piperazin-1-yl)butyl)-4-(3-cyanophenyl)piperazine-1-carboxamide] | 707 ± 96.2 | 34.0 ± 9.1 | 8.7 ± 2.2 | 81 | 20.0 ± 6.2 | – | – | – | – | – | – | – | – | – | –
2 | O=C(NCCCCN1CCN(c2ccnc3ccccc23)CC1)N1CCN(c2ccccc2)CC1 [Compound 11, 4-Phenyl-N-(4-(4-(quinolin-4-yl)piperazin-1-yl)butyl)piperazine-1-carboxamide] | 1170 ± 128 | 24.4 ± 3.8 | 9.8 ± 1.2 | 119 | 43.1 ± 9.4 | – | – | – | – | – | – | – | – | – | –
3 | O=C(NCCCCN1CCN(c2ccccc2)CC1)N1CCN(c2ccccc2)CC1 [Compound 1, 4-Phenyl-N-(4-(4-phenylpiperazin-1-yl)butyl)piperazine-1-carboxamide] | 124 ± 26.2 | 91.4 ± 2.4 | 2 ± 0.2 | 62 | 48.3 ± 9.4 | – | – | – | – | – | – | – | – | – | –
4 | CC(C)(C)c1nc(N2CCN(CCCCNC(=O)N3Cc4ccccc4C3)CC2)cc(C(F)(F)F)n1 [Compound 39, N-(4-(4-(2-(tert-Butyl)-6-(trifluoromethyl)pyrimidin-4-yl)piperazin-1-yl)butyl)isoindoline-2-carboxamide] | 778 ± 29.5 | −24.0 ± 7.0 | 12.2 ± 2 | 64 | 19.8 ± 6.7 | – | – | – | – | – | – | – | – | – | –
5 | Cc1cc(N2CCN(CCCCNC(=O)N3CCN(c4ccccc4)CC3)CC2)nc(C(F)(F)F)n1 [Compound 7, N-(4-(4-(6-Methyl-2-(trifluoromethyl)pyrimidin-4-yl)piperazin-1-yl)butyl)-4-phenylpiperazine-1-carboxamide] | 3880 ± 1220 | 30.4 ± 14.6 | 41.5 ± 9.1 | 93 | 42.4 ± 8.9 | – | – | – | – | – | – | – | – | – | –
6 | CC(C)(C)c1nc(N2CCN(CCCCNC(=O)N3CCN(c4cccnc4)CC3)CC2)cc(C(F)(F)F)n1 [Compound 30, N-(4-(4-(2-(tert-Butyl)-6-(trifluoromethyl)pyrimidin-4-yl)piperazin-1-yl)butyl)-4-(pyridin-3-yl)piperazine-1-carboxamide] | 455 ± 86 | 6.1 ± 7.5 | 5.9 ± 1.1 | 77 | 9.1 ± 5.8 | – | – | – | – | – | – | – | – | – | –
7 | CC(C)(C)c1nc(N2CCN(CCCCNC(=O)N3CCN(c4ncccn4)CC3)CC2)cc(C(F)(F)F)n1 [Compound 32, N-(4-(4-(2-(tert-Butyl)-6-(trifluoromethyl)pyrimidin-4-yl)piperazin-1-yl)butyl)-4-(pyrimidin-2-yl)piperazine-1-carboxamide] | 1190 ± 67.4 | – | 13.7 ± 3.1 | 87 | 40.8 ± 9.7 | > 10000 | < 8 | 84.4 | 195 ± 39 | > 10000 | < 1 | 100 | 257 ± 90 | – | –
8 | Cc1cc(N2CCN(CCCCNC(=O)N3CCC(n4c(=O)[nH]c5ccccc54)CC3)CC2)nc(C(C)(C)C)n1 [Compound 52, N-(4-(4-(2-(tert-Butyl)-6-methylpyrimidin-4-yl)piperazin-1-yl)butyl)-4-(2-oxo-2,3-dihydro-1H-benzo[d]imidazol-1-yl)piperidine-1-carboxamide] | 680 ± 135 | −5.9 ± 5.4 | 7.3 ± 1.6 | 93 | 11.6 ± 3.1 | – | – | – | – | – | – | – | – | – | –
9 | CC(C)(C)c1nc(N2CCN(CCCCNC(=O)c3cn4ccncc4n3)CC2)cc(C(F)(F)F)n1 [Compound 115, N-(4-(4-(2-(tert-Butyl)-6-(trifluoromethyl)pyrimidin-4-yl)piperazin-1-yl)butyl)imidazo[1,2-a]pyrazine-2-carboxamide] | 450 | – | 8 ± 1.6 | 56 | 37.8 ± 5.4 | – | < 20 | 94.7 | – | – | < 20 | 96.6 | – | 245 ± 33 | 420 ± 120
